# Assay results from a melting point compilation (Tetko et al.; mined from patent text by program, amines drawn as free bases though some values may be those of a salt).
row,melting point [°C],SMILES
1,158 to 159,Cc1nc(Cc2ccccc2)c(CO)c(CO)c1O
2,> 280,Cn1cnc2cc3[nH]c(-c4ccncc4)nc3cc21
3,154,N#Cc1cc([N+](=O)[O-])ccc1Oc1ccc(Cl)cc1Cl
4,198,COC(=O)C1=C(C)NN=C(c2ccccc2)C1c1ccccc1Cl (stereo not drawn)
5,219 to 221,Oc1ccc(-c2cc3ncccc3cn2)cc1
6,111 to 115,C[Si](C)(C)NC(=O)c1ccccc1
7,160 to 162,CNS(=O)(=O)Cc1ccc2[nH]cc(C3CCN(C)C3)c2c1 (stereo not drawn)
8,107 to 110,COc1ccc(Sc2sc(S(N)(=O)=O)cc2C)cc1
9,86 to 88,COc1ccc2c(c1)C1(CCN(Cc3ccccc3)CC1)OC2c1ccc(F)cc1 (stereo not drawn)
10,96.8 to 97.3,COc1ccc(C=N[C@H]2COc3c(F)ccc(OC)c3C2)cc1
11,188,O=C(Nc1n[nH]c2cc(Cl)ccc12)c1ccccc1
12,125 to 126,CN1CCC(C(=NNc2ccc(F)cc2)c2ccccc2F)CC1
13,94 to 95,CC(C)(C)C(=O)C(=Cn1ccnc1)Oc1ccc(Cl)cc1
14,46 to 50,O=[N+]([O-])c1ccc(C=Cc2ccccc2)cc1
15,144 to 146,CCc1nc2c(N)nc3ccccc3c2n1CCOCCN
16,301 to 304,O=C1NC(=O)c2c1c(-c1ccccc1Cl)cc1c2c2cc(O)ccc2n1CCS(=O)(=O)c1ncn[nH]1
17,124 to 125,O=C(O)CCc1cn(Cc2ccc(OCc3ccncc3)cc2)cc1-c1ccccc1
18,158 to 162,CC(C)(C)c1cc2c(c(C(C)(C)C)c1)OC(=O)C2c1ccc(OCC(=O)O)cc1 (stereo not drawn)
19,160 to 163,C[Si](C)(C)C#Cc1cc2cccnc2c(-c2cccc([N+](=O)[O-])c2)n1
20,190 to 191,O=C(OCc1ccccc1)N1CCc2c(sc3nc(CN4C(=O)CCC4=O)c(Cl)c(-c4ccc(OCC(F)(F)F)cc4)c23)C1
21,138 to 139,[O-][N+]1=C(c2ccccc2F)c2cc(Cl)ccc2C=CC1
22,217,CC(C)(C)OC(=O)CNC1(c2ccccc2Cl)C(=O)Nc2ccc(Cl)cc21 (stereo not drawn)
23,354 to 355,O=C(O)c1cccc(N2C(=O)c3cccc([N+](=O)[O-])c3C2=O)c1
24,155 to 156,CCC(C)n1c(=O)ccc2cnc(Nc3ccccc3)nc21 (stereo not drawn)
25,246 to 249,NC(=O)c1cc(Oc2ccc(Cl)c(Cl)c2)cnc1O
26,191 to 192,Nc1ccc2nc(-c3ccc4c(c3)OCO4)ncc2c1
27,196 to 198,CC1(C)Oc2ccc(C=O)cc2C(N2CCCC2=O)C1O (stereo not drawn)

row,melting point [°C],SMILES
1,232 to 236,CCn1c2ccccc2c2c3c(c(-c4ccccc4Cl)cc21)C(O)NC3=O (stereo not drawn)
2,97 to 98,Cc1ccnc2c1C(=O)CC(c1ccccc1Cl)C2 (stereo not drawn)
3,94 to 97,CN1C(=O)N(c2cc(F)ccc2F)C(=O)C1=Cc1ccccc1F
4,119 to 120,C#CCOc1cc(-n2ncc(=O)n(C)c2=O)c(Cl)cc1Cl
5,141 to 142,COc1cc(CC(C)NC(=O)c2ccccc2)cc2c1OC(C)(C)C2 (stereo not drawn)
6,117 to 118,O=C1CC(c2ccc(Cl)cc2Cl)c2cc(Br)ccc2O1 (stereo not drawn)
7,121,COc1ccc(-c2noc(C3CCCN(C(=O)c4ccccc4)C3)n2)cc1 (stereo not drawn)
8,84 to 85,O=C(OCc1ccccc1)C1C(Sc2ccccc2)CC2CC(=O)N21 (stereo not drawn)
9,165 to 166,COC(=O)C1=CC(=O)CC(c2ccc(Cl)c(OC)c2F)N1 (stereo not drawn)
10,185 to 189,Clc1ccc(CN2CCN=C2Cc2ccccc2)c(Cl)c1
11,116 to 118,CS(=O)Cc1ccc(C(=O)c2ccc(Cl)cc2)cc1 (stereo not drawn)
12,175 to 176,CC(=O)c1ccc(Nc2cccc(-c3cccnc3)c2)c(N)c1
13,253 to 255,CCOCc1nc2c(N)nc3cc(OCc4ccccc4Cl)ccc3c2n1CC(C)(C)NS(C)(=O)=O
14,> 250,Cc1c(O)cc(N2C(=O)c3ccccc3C2=O)cc1C(=O)O
15,245 to 246,Cc1cc(C#N)cnc1Oc1c(Cl)cc(NC(=O)NC(=O)c2c(Cl)cccc2Cl)cc1Cl
16,199 to 201,O=C(c1ccccc1Nc1ccc(O)cc1)N1CCCCC1
17,270,NC(=O)c1cc([N+](=O)[O-])ccc1C=Cc1ccccc1
18,245 to 246,Cc1cccc(C(C)(C)C)c1NC(=O)NC1(c2cccs2)CCCCC1
19,193 to 196,CNC(=O)n1nc(-c2ccc(Cl)cc2)nc1N
20,122 to 123,CC(=O)OCc1c(C)n(C[C@H]2C[C@@H]2C)c2c(OCc3ccc(F)cc3)nncc12
21,171 to 174,CC(O)C(C)Sc1sc(-c2cc[nH]n2)c2c1C(=O)CC(C)(C)C2 (stereo not drawn)
22,166 to 171,CC(=NOCc1ccccc1Nc1c(Cl)ccc(C)c1Cl)C(=O)O
23,153 to 155,O=c1[nH]c(=O)n(C2CC(OCc3cccc(Cl)c3)C(CO)O2)cc1F (stereo not drawn)
24,251 to 255,COC(=O)c1cccc2c3nc4ccccc4[nH]c-3nc12
25,157,Cc1nc(Cc2ccccc2)cc(C(=O)O)c1OCCCN(C)C
26,210 to 212,COC(=O)c1c(Cc2ccc(S(=O)(=O)N3CCN(C)CC3)cc2)c(=O)c2ccccc2n1-c1ccccc1
27,167 to 168,Cc1nc2c3c(c(C(=O)NCCO)cc2n1C)CCC1(Cc2ccccc2C1)N3

# Second part, the compound before the results:
row,SMILES,melting point [°C]
1,CCn1c(=O)c2[nH]c(C(C)C)nc2n(Cc2ccc(OC)c(OC)c2)c1=O,198 to 201
2,NNC(=O)C(F)(F)c1cccc(Cl)n1,165 to 167
3,C#CCN(Cc1ccc2nc(C)[nH]c(=O)c2c1)c1ccc(C(=O)NCc2cccc([N+](=O)[O-])c2)c(N)c1,86 to 92
4,CCc1cc(CC)n2nccc2n1,43 to 44
5,CCCCCc1c(C(C)C)cc(C(C)C)c(C(C)O)c1-c1ccc(F)cc1 (stereo not drawn),126
6,Cn1c(COc2ccc(CC3SC(=O)N(C(c4ccccc4)(c4ccccc4)c4ccccc4)C3=O)cc2)cc2ccccc21 (stereo not drawn),134 to 136
7,COc1ccc(Cc2oc3ccc(O)cc3c2C)cc1,128 to 131
8,CCCc1c(OCCCCCC(=O)c2cc(OC)c(OC)cc2F)ccc(C(=O)O)c1O,146 to 147
9,O=C(NO)c1ccc(CNC(=O)c2[nH]c(-c3cccs3)cc2-c2ccc(F)cc2)nc1,151 to 152
10,Cc1ccc(C(=O)Nc2ccc(CN(C)C)c(C(F)(F)F)c2)cc1-c1ccc2cnncc2c1,156 to 157
11,COc1ccc2ccc(S(=O)(=O)N[C@@H](CCCNC(=N)N)C(=O)N3CCC(c4ccccc4)CC3C(=O)O)cc2c1 (stereo partly drawn),183 to 186
12,O=Cc1ccc(C(=O)Nc2ccc(OCC(F)(F)C(F)F)cc2)cc1,152
13,CCc1ncnc(N[C@H]2CC[C@@H](CO)CC2)c1Cl,71 to 72
14,CCN1CCN([C@@H]2c3cc(C#N)ccc3OC(C)(C)[C@H]2O)C1=NC#N (relative stereo),231 to 233
15,CCc1cc([N+](=O)[O-])cc(C=O)c1O,93.5 to 94
16,COc1cccc2c1C(CC(C)=O)NC2=O (stereo not drawn),176 to 178
17,COC(=N[N+](=O)[O-])NCc1ccc(Cl)nc1,112 to 113
18,CC(=O)c1ccc(OC2CCOCC2)cc1O,99 to 104
19,CCOC(=O)c1sc(SC(C)C)c2c1CCC(Br)C2=O (stereo not drawn),107 to 108
20,N=C(Nc1ccccc1I)Nc1cccc2ccccc12,154 to 155
21,CNC(=O)Nc1cccc(-c2noc(C(F)(F)F)n2)c1,141 to 143
22,CN(C)Cc1cc2ccc(-c3nnc(CSCCOc4ccccc4)o3)cc2[nH]1,128 to 130
23,COC(=O)c1cc(C)cc(NC(=O)c2nnn[nH]2)c1O,238 to 240
24,c1cncc(C2=NNC(c3cccnc3)S2)c1 (stereo not drawn),77 to 78
25,Cc1cccc(C(=O)C=CC(=O)O)c1,115 to 117

row,SMILES,melting point [°C]
1,O=C(OCCN1CCN(c2cccc(C(F)(F)F)c2)CC1)c1cc(F)ccc1Nc1ccnc2cc(Cl)ccc12,113
2,c1cnc(NCCCNCC2CCc3ccc4c(c3O2)CCCC4)nc1 (stereo not drawn),57.6
3,CCOCN1N=NC(=S)C1C (stereo not drawn),137 to 138
4,CC(c1cc2cc(Cl)ccc2o1)N(O)C(N)=O (stereo not drawn),174 to 175
5,Nc1c(F)c(N2CCCCCC2)c(F)c2c1c(=O)c(C(=O)O)cn2C1CC1,234 to 236
6,O=C(Nc1ccc(-n2nc(C(F)(F)F)cc2C(F)(F)F)cc1)c1nc(Cl)ccc1Cl,118 to 119
7,COC(=O)c1cnn(O)c1,175
8,CC(C)(O)Cc1cccc(O)c1,91 to 94
9,CCCCOc1cc(CCCC(=O)O)n(Cc2ccc(Cl)cc2Cl)n1,60.5 to 61
10,C=CC(=O)OCCN(CCOC(=O)C=C)c1ccc(N=Nc2snc(C)c2C#N)c(NC(=O)C(C)C)c1,92 to 94
11,CCOC(=O)C(C=O)Cc1ccc(OC)nc1 (stereo not drawn),91.5 to 94
12,COc1cc2occ(C(=O)Nc3cccnc3)c2cc1Br,210 to 212
13,CC(CS)C(=O)N(CC(=O)O)c1ccccc1 (stereo not drawn),168 to 170
14,NCCOC(=C1C2CC3CC(C2)CC1C3)c1cccc(O)c1,55
15,COC(=O)c1nc(NC(C)=O)ccc1Oc1nc(OC)cc(OC)n1,80 to 85
16,CC(C)(C)OC(=O)NC(=O)C(N)OCc1ccccc1 (stereo not drawn),115 to 120
17,CCOP(=O)(Cc1cccc(NC(=O)C2=Cc3cc(C4CCCCC4)ccc3CC2)c1)OCC,54 to 56
18,CS(=O)c1ccc2nc(C(F)(F)F)nc(Cl)c2c1 (stereo not drawn),105 to 107
19,CSc1ccc(N)c(C(=O)NN)c1,124 to 127
20,CC(=O)NC(CCCCN)C(=O)C(N)C(CC1(C(=O)NC2CCC(C(=O)O)CC2)CCCC1)C(=O)O (stereo not drawn),161 to 163
21,COC(=O)C(C)c1noc2cc(F)c(N3C(=O)C(C)=C(C)C3=O)cc12 (stereo not drawn),106 to 107
22,Oc1ccc(Oc2ccc(Oc3ccc(O)cc3)cc2)cc1,187 to 189
23,CCn1c2cc(Cl)ccc2c2oc(C(=O)Cl)cc21,137 to 138
24,COc1cc(COc2nn(-c3ccccc3)cc2/C=C/c2nc(N3CCCCC3)sc2C)ccc1OCc1nc(-c2ccc(CC(=O)O)cc2)oc1C,146 to 148
